Experimental data: ChEMBL document CHEMBL2424524, “Synthesis and biological evaluation of novel ocotillol-type triterpenoid derivatives as antibacterial agents” (Eur J Med Chem, 2013)
≈ marks a conversion by molar mass, not a printed value.

Experiments:
Escherichia coli = assay: Antibacterial activity against Escherichia coli by dilution technique; type: functional
Pseudomonas aeruginosa = assay: Antibacterial activity against Pseudomonas aeruginosa by dilution technique; type: functional
Acinetobacter baumannii = assay: Antibacterial activity against Acinetobacter baumannii by dilution technique; type: functional
Bacillus subtilis [1] = assay: Antibacterial activity against Bacillus subtilis 168 by dilution technique; type: functional; conditions: subsp. subtilis str. 168
Staphylococcus aureus [2] = assay: Antibacterial activity against Staphylococcus aureus RN4220 by dilution technique; type: functional
[3] = Selectivity index, ratio of IC50 for human HEK293 cells to MIC for Staphylococcus aureus RN4220; type: functional
[4] = Selectivity index, ratio of IC50 for human HeLa cells to MIC for Staphylococcus aureus RN4220; type: functional
[5] = Selectivity index, ratio of IC50 for human HEK293 cells to MIC for community associated methicillin-resistant Staphylococcus aureus USA300; type: functional
[6] = Selectivity index, ratio of IC50 for human HeLa cells to MIC for community associated methicillin-resistant Staphylococcus aureus USA300; type: functional
HeLa = assay: Cytotoxicity against human HeLa cells after 72 hrs by MTT assay; type: cell-based
HEK293 = assay: Cytotoxicity against human HEK293 cells after 72 hrs by MTT assay; type: cell-based; conditions: HEK293, 72 h
Staphylococcus aureus [7] = assay: Antibacterial activity against community associated methicillin-resistant Staphylococcus aureus USA300 by dilution technique; type: functional
Bacillus subtilis [8] = assay: Antibacterial activity against Bacillus subtilis 168 by dilution technique in presence of chloramphenicol; type: functional, subsp. subtilis str. 168
Staphylococcus aureus [9] = assay: Antibacterial activity against community associated methicillin-resistant Staphylococcus aureus USA300 by dilution technique in presence of chloramphenicol; type: functional
Bacillus subtilis [10] = assay: Antibacterial activity against Bacillus subtilis 168 by dilution technique in presence of kanamycin; type: functional, subsp. subtilis str. 168
Staphylococcus aureus [11] = assay: Antibacterial activity against community associated methicillin-resistant Staphylococcus aureus USA300 by dilution technique in presence of kanamycin; type: functional

SMILES | MIC (Escherichia coli) | MIC (Pseudomonas aeruginosa) | MIC (Acinetobacter baumannii) | MIC (Bacillus subtilis [1]) | MIC (Staphylococcus aureus [2]) | Selectivity Index [3] | Selectivity Index [4] | Selectivity Index [5] | Selectivity Index [6] | IC50 (HeLa) | IC50 (HEK293) | MIC (Staphylococcus aureus [7]) | fractional inhibitory concentration index (FICI) (Bacillus subtilis [8]) | fractional inhibitory concentration index (FICI) (Staphylococcus aureus [9]) | fractional inhibitory concentration index (FICI) (Bacillus subtilis [10]) | fractional inhibitory concentration index (FICI) (Staphylococcus aureus [11]) | MBC (Bacillus subtilis [1]) | MBC (Staphylococcus aureus [2]) | MBC (Staphylococcus aureus [7])
CC(C)(O)[C@H]1CC[C@@](C)([C@H]2CC[C@]3(C)[C@@H]2C(=O)C[C@@H]2[C@@]4(C)CC[C@H](O)C(C)(C)[C@@H]4CC[C@]23C)O1 | > 128 µg/mL | > 128 µg/mL | > 128 µg/mL | 128 µg/mL (≈ 270 µM) | > 128 µg/mL |  |  |  |  |  |  |  |  |  |  |  |  |  | 
CC(C)(O)[C@@H]1CC[C@@](C)([C@H]2CC[C@]3(C)[C@@H]2C(=O)C[C@@H]2[C@@]4(C)CCC(=O)C(C)(C)[C@@H]4CC[C@]23C)O1 | > 128 µg/mL | > 128 µg/mL | > 128 µg/mL | 64 µg/mL (≈ 135 µM) | 16 µg/mL (≈ 33.8 µM) | 10.6 | 2.9 | 10.6 | 2.9 | 47 µg/mL (≈ 99.4 µM) | 170 µg/mL (≈ 360 µM) | 16 µg/mL (≈ 33.8 µM) |  |  |  |  |  |  | 
CC(C)(O)[C@@H]1CC[C@@](C)([C@H]2CC[C@]3(C)[C@@H]2[C@H](O)C[C@@H]2[C@@]4(C)CCC(=O)C(C)(C)[C@@H]4CC[C@]23C)O1 | > 128 µg/mL | > 128 µg/mL | > 128 µg/mL | 32 µg/mL (≈ 67.4 µM) | > 128 µg/mL |  |  |  |  |  |  |  |  |  |  |  |  |  | 
C=C(C)[C@@H]1CC[C@]2(C(=O)O)CC[C@]3(C)[C@H](CC[C@@H]4[C@@]5(C)CC[C@H](O)[C@@](C)(CO)[C@@H]5CC[C@]43C)[C@@H]12 | > 128 µg/mL | > 128 µg/mL | > 128 µg/mL | 8 µg/mL (≈ 16.9 µM) | 16 µg/mL (≈ 33.8 µM) |  |  |  |  |  |  | 16 µg/mL (≈ 33.8 µM) |  |  |  |  |  |  | 
CC(C)(O)[C@@H]1CC[C@@](C)([C@H]2CC[C@]3(C)[C@@H]2[C@H](O)C[C@@H]2[C@@]4(C)CC[C@H](O)C(C)(C)[C@@H]4CC[C@]23C)O1 | > 128 µg/mL | > 128 µg/mL | > 128 µg/mL | 8 µg/mL (≈ 16.8 µM) | 8 µg/mL (≈ 16.8 µM) | 19.3 | 6 | 19.3 | 6 | 47.6 µg/mL (≈ 99.9 µM) | 154 µg/mL (≈ 324 µM) | 8 µg/mL (≈ 16.8 µM) | 1.25 | 1.5 | 1.03 | 0.14 |  |  | 
CC(=O)O[C@@H]1C[C@@H]2[C@@]3(C)CC[C@H](O)C(C)(C)[C@@H]3CC[C@@]2(C)[C@]2(C)CC[C@H]([C@]3(C)CC[C@@H](C(C)(C)O)O3)[C@@H]12 | 64 µg/mL (≈ 123 µM) | 64 µg/mL (≈ 123 µM) | 64 µg/mL (≈ 123 µM) | > 128 µg/mL | > 128 µg/mL |  |  |  |  |  |  |  |  |  |  |  |  |  | 
CC(=O)O[C@@H]1C[C@@H]2[C@@]3(C)CC[C@H](O)C(C)(C)[C@@H]3CC[C@@]2(C)[C@]2(C)CC[C@H]([C@]3(C)CC[C@H](C(C)(C)O)O3)[C@@H]12 | 64 µg/mL (≈ 123 µM) | 128 µg/mL (≈ 247 µM) | 128 µg/mL (≈ 247 µM) | > 128 µg/mL | 64 µg/mL (≈ 123 µM) |  |  |  |  |  |  |  |  |  |  |  |  |  | 
CC(C)=CCC[C@](C)(O)[C@H]1CC[C@]2(C)[C@@H]1[C@H](O)C[C@@H]1[C@@]3(C)CC[C@H](O)C(C)(C)[C@@H]3CC[C@]12C | 64 µg/mL (≈ 139 µM) | > 128 µg/mL | 64 µg/mL (≈ 139 µM) | 32 µg/mL (≈ 69.5 µM) | 16 µg/mL (≈ 34.7 µM) |  |  |  |  |  |  | 32 µg/mL (≈ 69.5 µM) | 0.53 | 1.13 | 0.25 | 0.26 |  |  | 
CC(C)(O)[C@H]1CC[C@@](C)([C@H]2CC[C@]3(C)[C@@H]2[C@H](O)C[C@@H]2[C@@]4(C)CCC(=O)C(C)(C)[C@@H]4CC[C@]23C)O1 | > 128 µg/mL | > 128 µg/mL | > 128 µg/mL | 128 µg/mL (≈ 270 µM) | 128 µg/mL (≈ 270 µM) |  |  |  |  |  |  |  |  |  |  |  |  |  | 
CC(C)(O)[C@@H]1CC[C@@](C)([C@H]2CC[C@]3(C)[C@@H]2C(=O)C[C@@H]2[C@@]4(C)CC[C@H](O)C(C)(C)[C@@H]4CC[C@]23C)O1 | 64 µg/mL (≈ 135 µM) | > 128 µg/mL | > 128 µg/mL | > 128 µg/mL | 64 µg/mL (≈ 135 µM) |  |  |  |  |  |  |  |  |  |  |  |  |  | 
CC(C)(O)[C@@H]1CC[C@@](C)([C@H]2CC[C@]3(C)[C@@H]2[C@H](OC(=O)c2ccccc2C(=O)O)C[C@@H]2[C@@]4(C)CC[C@H](O)C(C)(C)[C@@H]4CC[C@]23C)O1 | > 128 µg/mL | 128 µg/mL (≈ 205 µM) | > 128 µg/mL | 16 µg/mL (≈ 25.6 µM) | 4 µg/mL (≈ 6.4 µM) | 43.8 | 13.6 | 5.5 | 1.7 | 54.4 µg/mL (≈ 87 µM) | 175 µg/mL (≈ 281 µM) | 32 µg/mL (≈ 51.2 µM) | <0.004 | 0.005 | <0.008 | 0.008 | 64 µg/mL (≈ 102 µM) | 64 µg/mL (≈ 102 µM) | 128 µg/mL (≈ 205 µM)
O=C(N[C@H](CO)[C@H](O)c1ccc([N+](=O)[O-])cc1)C(Cl)Cl [CHLORAMPHENICOL] |  |  |  | 2 µg/mL (≈ 6.19 µM) |  |  |  |  |  |  |  | 4 µg/mL (≈ 12.4 µM) |  |  |  |  |  |  | 
CC(C)(O)[C@@H]1CC[C@@](C)([C@H]2CC[C@]3(C)[C@@H]2[C@H](OC(=O)/C=C/c2ccccc2)C[C@@H]2[C@@]4(C)CC[C@H](O)C(C)(C)[C@@H]4CC[C@]23C)O1 | > 128 µg/mL | 128 µg/mL (≈ 211 µM) | 32 µg/mL (≈ 52.7 µM) | > 128 µg/mL | > 128 µg/mL |  |  |  |  |  |  |  |  |  |  |  |  |  | 
NC[C@H]1O[C@H](O[C@H]2[C@H](O)[C@@H](O[C@H]3O[C@H](CO)[C@@H](O)[C@H](N)[C@H]3O)[C@H](N)C[C@@H]2N)[C@H](O)[C@@H](O)[C@@H]1O [KANAMYCIN] | 1 µg/mL (≈ 2.06 µM) | 8 µg/mL (≈ 16.5 µM) | 1 µg/mL (≈ 2.06 µM) | 0.25 µg/mL (≈ 0.516 µM) | 1 µg/mL (≈ 2.06 µM) |  |  |  |  |  |  | 1 µg/mL (≈ 2.06 µM) |  |  |  |  | 1 µg/mL (≈ 2.06 µM) |  | 4 µg/mL (≈ 8.26 µM)
O=c1[nH]cc(F)c(=O)[nH]1 [FLUOROURACIL] |  |  |  |  |  |  |  |  |  | 0.8 µg/mL (≈ 6.15 µM) |  |  |  |  |  |  |  |  | 
CC(C)(O)[C@H]1CC[C@@](C)([C@H]2CC[C@]3(C)[C@@H]2[C@H](O)C[C@@H]2[C@@]4(C)CC[C@H](O)C(C)(C)[C@@H]4CC[C@]23C)O1 | > 128 µg/mL | > 128 µg/mL | 128 µg/mL (≈ 268 µM) | 128 µg/mL (≈ 268 µM) | 64 µg/mL (≈ 134 µM) |  |  |  |  |  |  |  |  |  |  |  |  |  | 
CC(C)(O)[C@H]1CC[C@@](C)([C@H]2CC[C@]3(C)[C@@H]2[C@H](OC(=O)c2ccccc2C(=O)O)C[C@@H]2[C@@]4(C)CC[C@H](O)C(C)(C)[C@@H]4CC[C@]23C)O1 | > 128 µg/mL | > 128 µg/mL | > 128 µg/mL | 16 µg/mL (≈ 25.6 µM) | 64 µg/mL (≈ 102 µM) |  |  |  |  |  |  | 64 µg/mL (≈ 102 µM) |  |  |  |  | 128 µg/mL (≈ 205 µM) |  | 
CC(C)(O)[C@H]1CC[C@@](C)([C@H]2CC[C@]3(C)[C@@H]2C(=O)C[C@@H]2[C@@]4(C)CCC(=O)C(C)(C)[C@@H]4CC[C@]23C)O1 | > 128 µg/mL | > 128 µg/mL | > 128 µg/mL | 128 µg/mL (≈ 271 µM) | 128 µg/mL (≈ 271 µM) |  |  |  |  |  |  |  |  |  |  |  |  |  | 
